Results taken from ChEMBL document CHEMBL1124085, “Flavins as potential antimalarials. 1. 10-(Halophenyl)-3-methylflavins” (1988).

These compounds were tested on Mus musculus (assay: Parenteral antimalarial activity against Plasmodium vinckei vinckei in mice (Mus musculus) measured as % cured and increase in MST (days) at 25 mg/kg dose.).
Type: functional

Row | SMILES | Cured [%]
1 | Cn1c(=O)nc2n(-c3cc(Cl)ccc3Cl)c3ccccc3nc-2c1=O | 0

Each compound was assayed on Mus musculus (assay: Parenteral antimalarial activity against Plasmodium vinckei in mice (Mus musculus) measured as % cured and increase in MST (days) at 30 mg/kg dose).
Type: functional

Row | SMILES | Cured [%]
2 | Cn1c(=O)nc2n(-c3cccc(Cl)c3)c3ccccc3nc-2c1=O | 0
3 | Cn1c(=O)nc2n(-c3ccc(F)cc3)c3ccccc3nc-2c1=O | 0

Each compound was assayed on Mus musculus (assay: Parenteral antimalarial activity against Plasmodium vinckei vinckei in mice (Mus musculus) measured as % cured and increase in MST (days) at 30 mg/kg dose.).
Type: functional

Row | SMILES | Cured [%]
4 | Cn1c(=O)nc2n(-c3cc(Cl)ccc3Cl)c3ccccc3nc-2c1=O | 0

These compounds were tested on Mus musculus (assay: Parenteral antimalarial activity against Plasmodium vinckei vinckei in mice (Mus musculus) measured as % cured and increase in MST (days) at 15 mg/kg dose).
Type: functional

Row | SMILES | Cured [%]
5 | Cn1c(=O)nc2n(-c3cccc(Cl)c3)c3ccccc3nc-2c1=O | 0
6 | Cn1c(=O)nc2n(-c3ccc(F)cc3)c3ccccc3nc-2c1=O | 0

The compounds below were run on Mus musculus (assay: Parenteral antimalarial activity against Plasmodium vinckei in mice (Mus musculus) measured as % cured and increase in MST (days) at 15 mg/kg dose.).
Type: functional

Row | SMILES | Cured [%]
7 | Cn1c(=O)nc2n(-c3cc(Cl)ccc3Cl)c3ccccc3nc-2c1=O | 0

The compounds below were run on Mus musculus (assay: Parenteral antimalarial activity against Plasmodium vinckei in mice (Mus musculus) measured as % cured and increase in MST (days) at 20 mg/kg dose).
Type: functional

Row | SMILES | Cured [%]
8 | Cn1c(=O)nc2n(-c3cccc(Cl)c3)c3ccccc3nc-2c1=O | 0
9 | Cn1c(=O)nc2n(-c3ccc(F)cc3)c3ccccc3nc-2c1=O | 20

These compounds were tested on Mus musculus (assay: Parenteral antimalarial activity against Plasmodium vinckei vinckei in mice (Mus musculus) measured as % cured and increase in MST (days) at 20 mg/kg dose.).
Type: functional

Row | SMILES | Cured [%]
10 | Cn1c(=O)nc2n(-c3cc(Cl)ccc3Cl)c3ccccc3nc-2c1=O | 0

Each compound was assayed on Mus musculus (assay: Parenteral antimalarial activity against Plasmodium vinckei in mice (Mus musculus) measured as % cured and increase in MST (days) at 25 mg/kg dose).
Type: functional

Row | SMILES | Cured [%]
11 | Cn1c(=O)nc2n(-c3cccc(Cl)c3)c3ccccc3nc-2c1=O | 0
12 | Cn1c(=O)nc2n(-c3ccc(F)cc3)c3ccccc3nc-2c1=O | 0

The compounds below were run on Mus musculus (assay: Oral antimalarial activity against Plasmodium vinckei in mice (Mus musculus) measured as % cured and increase in MST (days) at 25 mg/kg dose).
Type: functional

Row | SMILES | Cured [%]
13 | Cn1c(=O)nc2n(-c3ccc(F)cc3)c3ccccc3nc-2c1=O | 0

Each compound was assayed on Mus musculus (assay: Oral antimalarial activity against Plasmodium vinckei in mice (Mus musculus) measured as % cured and increase in MST (days) at 25 mg/kg dose.).
Type: functional

Row | SMILES | Cured [%]
14 | Cn1c(=O)nc2n(-c3cc(Cl)ccc3Cl)c3ccccc3nc-2c1=O | 0

What follows are compounds tested on Mus musculus (assay: Oral antimalarial activity against Plasmodium vinckei vinckei in mice (Mus musculus) measured as % cured and increase in MST (days) at 50 mg/kg dose).
Type: functional

Row | SMILES | Cured [%]
15 | Cn1c(=O)nc2n(-c3cccc(Cl)c3)c3ccccc3nc-2c1=O | 0
16 | Cn1c(=O)nc2n(-c3ccc(F)cc3)c3ccccc3nc-2c1=O | 0

These compounds were tested on Mus musculus (assay: Oral antimalarial activity against Plasmodium vinckei in mice (Mus musculus) measured as % cured and increase in MST (days) at 50 mg/kg dose.).
Type: functional

Row | SMILES | Cured [%]
17 | Cn1c(=O)nc2n(-c3cc(Cl)ccc3Cl)c3ccccc3nc-2c1=O | 0

Each compound was assayed on Mus musculus (assay: Oral antimalarial activity against Plasmodium vinckei in mice (Mus musculus) measured as % cured and increase in MST (days) at 75 mg/kg dose).
Type: functional

Row | SMILES | Cured [%]
18 | Cn1c(=O)nc2n(-c3cccc(Cl)c3)c3ccccc3nc-2c1=O | 20
19 | Cn1c(=O)nc2n(-c3ccc(F)cc3)c3ccccc3nc-2c1=O | 0

The compounds below were run on Mus musculus (assay: Oral antimalarial activity against Plasmodium vinckei in mice (Mus musculus) measured as % cured and increase in MST (days) at 75 mg/kg dose.).
Type: functional

Row | SMILES | Cured [%]
20 | Cn1c(=O)nc2n(-c3cc(Cl)ccc3Cl)c3ccccc3nc-2c1=O | 0

The compounds below were run on Mus musculus (assay: Parenteral antimalarial activity against Plasmodium vinckei in mice (Mus musculus) measured as % cured and increase in MST (days) at 10 mg/kg dose).
Type: functional

Row | SMILES | Cured [%]
21 | Cn1c(=O)nc2n(-c3ccc(F)cc3)c3ccccc3nc-2c1=O | 0

The compounds below were run on Mus musculus (assay: Parenteral antimalarial activity against Plasmodium vinckei vinckei in mice (Mus musculus) measured as % cured and increase in MST (days) at 10 mg/kg dose.).
Type: functional

Row | SMILES | Cured [%]
22 | Cn1c(=O)nc2n(-c3cc(Cl)ccc3Cl)c3ccccc3nc-2c1=O | 0

Each compound was assayed on Mus musculus (assay: Oral antimalarial activity against Plasmodium vinckei vinckei in mice (Mus musculus) measured as % cured and increase in MST (days) at 100 mg/kg dose).
Type: functional

Row | SMILES | Cured [%]
23 | Cn1c(=O)nc2n(-c3cccc(Cl)c3)c3ccccc3nc-2c1=O | 0
24 | Cn1c(=O)nc2n(-c3ccc(F)cc3)c3ccccc3nc-2c1=O | 0

Each compound was assayed on Mus musculus (assay: Oral antimalarial activity against Plasmodium vinckei vinckei in mice (Mus musculus) measured as % cured and increase in MST (days) at 100 mg/kg dose.).
Type: functional

Row | SMILES | Cured [%]
25 | Cn1c(=O)nc2n(-c3cc(Cl)ccc3Cl)c3ccccc3nc-2c1=O | 0

The compounds below were run on Mus musculus (assay: Oral antimalarial activity against Plasmodium vinckei vinckei in mice (Mus musculus) measured as % cured and increase in MST (days) at 150 mg/kg dose).
Type: functional

Row | SMILES | Cured [%]
26 | Cn1c(=O)nc2n(-c3cccc(Cl)c3)c3ccccc3nc-2c1=O | 60
27 | Cn1c(=O)nc2n(-c3ccc(F)cc3)c3ccccc3nc-2c1=O | 20

Each compound was assayed on Mus musculus (assay: Oral antimalarial activity against Plasmodium vinckei vinckei in mice (Mus musculus) measured as % cured and increase in MST (days) at 150 mg/kg dose.).
Type: functional

Row | SMILES | Cured [%]
28 | Cn1c(=O)nc2n(-c3cc(Cl)ccc3Cl)c3ccccc3nc-2c1=O | 0

The compounds below were run on Mus musculus (assay: Parenteral antimalarial activity against Plasmodium vinckei in mice (Mus musculus) measured as increase in mean survival time at 20 mg/kg dose).
Type: functional

Row | SMILES | MST [days]
29 | Cn1c(=O)nc2n(-c3cccc(Cl)c3)c3ccccc3nc-2c1=O | 0.2
30 | Cn1c(=O)nc2n(-c3ccc(F)cc3)c3ccccc3nc-2c1=O | 0.5

These compounds were tested on Mus musculus (assay: Parenteral antimalarial activity against Plasmodium vinckei vinckei in mice (Mus musculus) measured as increase in mean survival time at 20 mg/kg dose.).
Type: functional

Row | SMILES | MST [days]
31 | Cn1c(=O)nc2n(-c3cc(Cl)ccc3Cl)c3ccccc3nc-2c1=O | 0

What follows are compounds tested on Mus musculus (assay: Parenteral antimalarial activity against Plasmodium vinckei vinckei in mice (Mus musculus) measured as increase in mean survival time at 25 mg/kg dose).
Type: functional

Row | SMILES | MST [days]
32 | Cn1c(=O)nc2n(-c3cccc(Cl)c3)c3ccccc3nc-2c1=O | 0
33 | Cn1c(=O)nc2n(-c3ccc(F)cc3)c3ccccc3nc-2c1=O | 0.8

The compounds below were run on Mus musculus (assay: Parenteral antimalarial activity against Plasmodium vinckei vinckei in mice (Mus musculus) measured as increase in mean survival time at 25 mg/kg dose.).
Type: functional

Row | SMILES | MST [days]
34 | Cn1c(=O)nc2n(-c3cc(Cl)ccc3Cl)c3ccccc3nc-2c1=O | 0

The compounds below were run on Mus musculus (assay: Parenteral antimalarial activity against Plasmodium vinckei in mice (Mus musculus) measured as increase in mean survival time at 30 mg/kg dose).
Type: functional

Row | SMILES | MST [days]
35 | Cn1c(=O)nc2n(-c3cccc(Cl)c3)c3ccccc3nc-2c1=O | 0
36 | Cn1c(=O)nc2n(-c3ccc(F)cc3)c3ccccc3nc-2c1=O | 0.2

What follows are compounds tested on Mus musculus (assay: Parenteral antimalarial activity against Plasmodium vinckei vinckei in mice (Mus musculus) measured as increase in mean survival time at 30 mg/kg dose.).
Type: functional

Row | SMILES | MST [days]
37 | Cn1c(=O)nc2n(-c3cc(Cl)ccc3Cl)c3ccccc3nc-2c1=O | 0

Each compound was assayed on Mus musculus (assay: Parenteral antimalarial activity against Plasmodium vinckei in mice (Mus musculus) measured as increase in mean survival time at 10 mg/kg dose).
Type: functional

Row | SMILES | MST [days]
38 | Cn1c(=O)nc2n(-c3ccc(F)cc3)c3ccccc3nc-2c1=O | 0

These compounds were tested on Mus musculus (assay: Parenteral antimalarial activity against Plasmodium vinckei in mice (Mus musculus) measured as increase in mean survival time at 10 mg/kg dose.).
Type: functional

Row | SMILES | MST [days]
39 | Cn1c(=O)nc2n(-c3cc(Cl)ccc3Cl)c3ccccc3nc-2c1=O | 0

Each compound was assayed on Mus musculus (assay: Parenteral antimalarial activity against Plasmodium vinckei in mice (Mus musculus) measured as increase in mean survival time at 15 mg/kg dose).
Type: functional

Row | SMILES | MST [days]
40 | Cn1c(=O)nc2n(-c3cccc(Cl)c3)c3ccccc3nc-2c1=O | 0
41 | Cn1c(=O)nc2n(-c3ccc(F)cc3)c3ccccc3nc-2c1=O | 0.8

What follows are compounds tested on Mus musculus (assay: Parenteral antimalarial activity against Plasmodium vinckei in mice (Mus musculus) measured as increase in mean survival time at 15 mg/kg dose.).
Type: functional

Row | SMILES | MST [days]
42 | Cn1c(=O)nc2n(-c3cc(Cl)ccc3Cl)c3ccccc3nc-2c1=O | 0

Each compound was assayed on Mus musculus (assay: Oral antimalarial activity against Plasmodium vinckei in mice (Mus musculus) measured as increase in mean survival time at 100 mg/kg dose).
Type: functional

Row | SMILES | MST [days]
43 | Cn1c(=O)nc2n(-c3cccc(Cl)c3)c3ccccc3nc-2c1=O | 1.2
44 | Cn1c(=O)nc2n(-c3ccc(F)cc3)c3ccccc3nc-2c1=O | 1

The compounds below were run on Mus musculus (assay: Oral antimalarial activity against Plasmodium vinckei vinckei in mice (Mus musculus) measured as increase in mean survival time at 100 mg/kg dose.).
Type: functional

Row | SMILES | MST [days]
45 | Cn1c(=O)nc2n(-c3cc(Cl)ccc3Cl)c3ccccc3nc-2c1=O | 0

The compounds below were run on Mus musculus (assay: Oral antimalarial activity against Plasmodium vinckei in mice (Mus musculus) measured as increase in mean survival time at 150 mg/kg dose).
Type: functional

Row | SMILES | MST [days]
46 | Cn1c(=O)nc2n(-c3cccc(Cl)c3)c3ccccc3nc-2c1=O | 2.5
47 | Cn1c(=O)nc2n(-c3ccc(F)cc3)c3ccccc3nc-2c1=O | 2.3

These compounds were tested on Mus musculus (assay: Oral antimalarial activity against Plasmodium vinckei in mice (Mus musculus) measured as increase in mean survival time at 150 mg/kg dose.).
Type: functional

Row | SMILES | MST [days]
48 | Cn1c(=O)nc2n(-c3cc(Cl)ccc3Cl)c3ccccc3nc-2c1=O | 0

These compounds were tested on Mus musculus (assay: Oral antimalarial activity against Plasmodium vinckei in mice (Mus musculus) measured as increase in mean survival time at 25 mg/kg dose).
Type: functional

Row | SMILES | MST [days]
49 | Cn1c(=O)nc2n(-c3ccc(F)cc3)c3ccccc3nc-2c1=O | 0

These compounds were tested on Mus musculus (assay: Oral antimalarial activity against Plasmodium vinckei in mice (Mus musculus) measured as increase in mean survival time at 25 mg/kg dose.).
Type: functional

Row | SMILES | MST [days]
50 | Cn1c(=O)nc2n(-c3cc(Cl)ccc3Cl)c3ccccc3nc-2c1=O | 0

What follows are compounds tested on Mus musculus (assay: Oral antimalarial activity against Plasmodium vinckei vinckei in mice (Mus musculus) measured as increase in mean survival time at 50 mg/kg dose).
Type: functional

Row | SMILES | MST [days]
51 | Cn1c(=O)nc2n(-c3cccc(Cl)c3)c3ccccc3nc-2c1=O | 0
52 | Cn1c(=O)nc2n(-c3ccc(F)cc3)c3ccccc3nc-2c1=O | 0.8

Each compound was assayed on Mus musculus (assay: Oral antimalarial activity against Plasmodium vinckei vinckei in mice (Mus musculus) measured as increase in mean survival time at 50 mg/kg dose.).
Type: functional

Row | SMILES | MST [days]
53 | Cn1c(=O)nc2n(-c3cc(Cl)ccc3Cl)c3ccccc3nc-2c1=O | 0

The compounds below were run on Mus musculus (assay: Oral antimalarial activity against Plasmodium vinckei vinckei in mice (Mus musculus) measured as increase in mean survival time at 75 mg/kg dose).
Type: functional

Row | SMILES | MST [days]
54 | Cn1c(=O)nc2n(-c3cccc(Cl)c3)c3ccccc3nc-2c1=O | 4.3
55 | Cn1c(=O)nc2n(-c3ccc(F)cc3)c3ccccc3nc-2c1=O | 0.6

Each compound was assayed on Mus musculus (assay: Oral antimalarial activity against Plasmodium vinckei vinckei in mice (Mus musculus) measured as increase in mean survival time at 75 mg/kg dose.).
Type: functional

Row | SMILES | MST [days]
56 | Cn1c(=O)nc2n(-c3cc(Cl)ccc3Cl)c3ccccc3nc-2c1=O | 0
